The source of these data is patent US4698354A, “4-methoxy-isophthalic acid derivative having a pharmacological activity in thromboembolic disorders” (Societa Italo-Brittanica L. Manetti-H. Roberts & Co., priority 1986, dated 1987).

pIC50: −log10 of the molar value.

Data set [1] can be described thus: Acute toxicity (DL50), rat. As to conditions: in vivo, sole administration, seven days observation. The source says: (§1) The compound object of the present invention has been tested to ascertain the acute toxicity, bio-disponibility and interference with the blood platelet function in vitro and in vivo by carrying out tests in all cases in comparison with another molecule, picotamide monohydrate, which is included in the same class of products, and the pharmacological activity of which is already known (see German patent 3113150).
(§2) The compound of the present invention was subjected to acute toxicity tests on two animal species and two administration routes. The animals which are treated per os or endovenously in a sole administration, have been held under observation for seven days after treatment by recording the symptomatology and the number of deaths. The results, referred in the following table, are indicated as the dose which produces the death of 50% of the treated animals (DL50) calculated by statistical method: […]

Data set [2] relates to platelet aggregation induced with ADP. Description: Blood platelet anti-aggregant activity in vitro on human PRP, ADP. In kind it is cell-based. The following applies: for pIC50: Platelet, ADP, human PRP, ten minutes incubation at 37° C., read-out: IC50 (50% decrease of maximum amplitude of aggregation curve). The protocol: (§3) The blood platelet anti-aggregant activity of G619 was studied in comparison with picotamide on human platelet rich plasma (PRP), wherein the platelet aggregation was induced with ADP, collagen, AANa and U46619 after incubation at 37° C. for ten minutes with the compounds under test. The results, indicated as a concentration able to decrease by 50% (IC50) the maximum amplitude of the aggregation curve obtained with control plasma incubated only with the buffer, are the following: […]

Data set [3] is described as follows: Per os absorbtion in rat, plasma levels. The following applies: for concentration at 0.5 h: 1/2 h; for absorbtion, times higher than that of picotamide monohydrate: rat per os. In kind it is in vivo.
Source text: as §1
Per os absorbtion tests have been carried out in rat after a sole administration of 100 mg/Kg in gum acacia suspension. The determinations of the blood levels of the two substances at various times have been effected on plasma using a high pressure liquid phase chromotograph and indicated as γ/ml. The values referred hereinafter represent the average of 8 determinations: […]

The test system of data set [4] is Blood platelet aggregation from AANa. Description: Blood platelet anti-aggregate activity in vitro, arachidonic acid (AANa)-induced aggregation, rabbit PRP. In kind it is cell-based. The following applies: Oryctolagus cuniculus, 10 min, 10 minutes incubation at 37° C., read-out: IC50 (50% decrease of maximum amplitude of aggregation curve).
Source text: as §1
(§4) Platelet aggregation was induced in rabbit "platelet rich plasma" (PRP) by employing as aggregant agents adenosine diphosphate (ADP) and arachidonic acid (AANa) after incubation at 37° C. for 10 minutes with the compounds under test. The activity is expressed as the concentration able to decrease by 50% (IC50) the maximum amplitude (AM) of the aggregation curve so obtained, with respect to the aggregation curve as obtained with control plasmas incubated only with buffers.
(§5) The results of the tests effected with ADP and AANa are hereinafter referred: […]

Data set [5] relates to Blood platelet aggregation from ADP. Description: Blood platelet anti-aggregate activity in vitro, ADP-induced aggregation, rabbit PRP. The class given is cell-based. As to conditions: Oryctolagus cuniculus, 10 min, 10 minutes incubation at 37° C., read-out: IC50 (50% decrease of maximum amplitude of aggregation curve).
Source text: as §1, §4, §5

Data set [6] in a line: Acute toxicity (DL50), mouse. The following applies: in vivo, sole administration, seven days observation.
Source text: as §1, §2

Data set [7] has as its system platelet aggregation induced with AANa. Briefly: Blood platelet anti-aggregant activity in vitro on human PRP, AANa. The class given is cell-based. As to conditions: ten minutes incubation at 37° C., read-out: IC50 (50% decrease of maximum amplitude of aggregation curve). As to the method: as §3
Data set [8] deals with platelet aggregation induced by arachidonic acid. Description: Blood platelet anti-aggregant activity in vivo (arachidonic acid-induced aggregation in PRP of treated rabbits). On the set-up: species or system New Zealand rabbits. The following applies: for ED50: Oryctolagus cuniculus, Platelet, 0.5 h, rabbit, gum acacia suspension, blood taken 30 minutes after treatment, arachidonic acid, read-out: ID50 (dose decreasing by 50% the maximum amplitude of the aggregation curve).
Source text: as §1
New Zealand rabbits which had been held fasting for twelve hours with water ad libitum, were administered with G 619 and picotamide monohydrate at various dosages in a gum acacia suspension. To the control rabbits only gum acacia was administered. After 30 minutes from treatment the animals were anaesthetized with sodium pentothal (30 mg/Kg i.v.) and blood was taken from the carotid artery, rendered incoagulable with sodium citrate at 3,8% and centrifuged at 1400 rpm for 15 minutes in order to obtain the platelet rich plasma (PRP). On said PRP the platelet aggregation was induced by arachidonic acid and the corresponding aggregation curve was recorded using a Born aggregometer. The activity is indicated as the dose able to decrease by 50% (ID50) the maximum amplitude (AM) of the aggregation curve of plasma of treated animals with respect to that of plasma from control animals, the following results being obtained: […]

Data set [9] deals with production of thromboxane B2 (TxB2). Briefly: Production of thromboxane B2 (TxB2) in human PRP after stimulation with collagen. In kind it is cell-based. The following applies: collagen 1 μg/ml, TxB2 measured in ug/ml. The protocol:
In order to investigate the mechanism of action of G619 the production of malondialdehyde (MDA) and thromboxane B2 (TxB2) after stimulation with collagen 1 μg/ml was measured on human PRP.

In data set [10] the test system is platelet aggregation induced with U46619. Description: Blood platelet anti-aggregant activity in vitro on human PRP, U46619. The following applies: ten minutes incubation at 37° C., read-out: IC50 (50% decrease of maximum amplitude of aggregation curve). The class given is cell-based. As to the method:
as §3

Data set [11] has as its system production of 6-keto-PGFla. Briefly: Production of 6-keto-PGFla in human PRP after stimulation with collagen. As to conditions: collagen 1 ug/ml. In kind it is cell-based. As to the method:
The production of 6-keto-PGFla was also measured after stimulation of human PRP with collagen 1 ug/ml.

In data set [12] the test system is platelet aggregation induced with collagen. Briefly: Blood platelet anti-aggregant activity in vitro on human PRP, collagen. The following applies: ten minutes incubation at 37° C., read-out: IC50 (50% decrease of maximum amplitude of aggregation curve). In kind it is cell-based. The protocol:
as §3

In data set [13] the test system is platelet aggregation induced in PRP using ADP. Briefly: Blood platelet anti-aggregant activity on human volounteers (ADP-induced aggregation in PRP). The class given is in vivo. As to conditions: 500 mg sole dose per os; for percent inhibition of the aggregation curve: ADP 2×10^-6 M. The protocol: On healthy human volounteers of both sexes aging from 31 to 53 the blood anti-aggregant activity was evaluated by per os treatment at a 500 mg sole dose, taking the blood samples before treatment and after 1-2-4-6 hours. The platelet aggregation was induced in PRP using ADP as aggregant agent at a concentration of 2×10^-6 M following the method illustrated in example 2. The platelet anti-aggregant activity reported in quantitative terms in the following table, was calculated as percent inhibition of the aggregation curve after treatment with respect to the […]

Setting [14] is: in vivo, po, rat, 100 mg/Kg per os, gum acacia suspension, average of 8 determinations, read-out: blood level (plasma).

Usually LD50 stands for the dose expected to kill half of the subjects tested. A higher LD50 goes with a less toxic substance. As a reminder, the pIC50 is −log10 of the IC50, conventionally taken in molar units. In the case of `COc1ccc(C(N)=O)cc1C(=O)NCc1cccnc1` [G 619, 3-carbamoyl(3'-picolyl)-4-methoxy-1-benzamide], the LD50 at 168 h in data set [1] (iv) was 450 mg/kg; in data set [1] (po, os), > 3000 mg/kg; in data set [6] (iv), 400 mg/kg; in data set [6] (po, os) it was > 3000 mg/kg. The pIC50 was 4.25 in data set [2]; 4.57 in data set [4]; 3.90 in data set [5]; 5.38 in [7]; 5.34 in data set [9]; 5.04 in data set [10]. In addition, the pIC50 in data set [12] was 4.96. Also, the “power of action, factor higher with respect to picotamide” value in data set [2] (platelet aggregations induced in human PRP (ADP, collagen, AANa, U46619)) is recorded as 10 factor. Further, the concentration at 0.5 h in data set [3] (setting [14]) is 26900 ng/mL. Further, in [3] (setting [14]), the concentration at 1 h came to 20200 ng/mL. The concentration at 2 h in [3] (setting [14]) stood at 9400 ng/mL. For the same compound, the concentration at 4 h in [3] (in vivo, po, rat, 100 mg/Kg per os, gum acacia suspension, 4 h, average of 8 determinations, read-out: blood level (plasma)) stood at 2100 ng/mL. The “absorbtion, times higher than that of picotamide monohydrate” value in [3] (1/2 hour) is on record as 8 times; in [3] (2 hours) it was 19 times. In addition, in data set [8], the ED50 came to 25 mg/kg. Further, in data set [8] (rabbit in vivo, ID50), the “activity, times higher than that of picotamide monohydrate” value is reported as “about 3 times”. For the same compound, in data set [11] (starting from concentrations of 10^-6 M, read-out: increase in the production of 6-keto-PGFla), the activation at 1 µM lay within 100 to 150%. Also, the “maximum activity (platelet anti-aggregant)” value in data set [13] (ADP) was 53,8%. Further, the “time after treatment of maximum activity” value in data set [13] (ADP) is reported as “two”. Moreover, the “percent inhibition of the aggregation curve” value is recorded as 38,2% in data set [13] (1 h), 53,8% in data set [13] (2 h), 43,4% in [13] (4 h) and 24,2% in data set [13] (6 h).

`COc1ccc(C(=O)NCc2cccnc2)cc1C(=O)NCc1cccnc1` [Picotamide monohydrate, N-N'-bis-(3-picolyl)-4-methoxy-isophthalamide monohydrate, reference compound]: the 50% lethal dose (LD50) at 168 h came to 190 mg/kg in data set [1] (iv); 3000 mg/kg in data set [1] (po, os); 275 mg/kg in data set [6] (iv); 3000 mg/kg in data set [6] (po, os). For the same compound, the pIC50 was 3.09 in data set [2]; 4.10 in [4]; 3.03 in [5]; 4.05 in data set [7]; 5.00 in data set [9]; 3.60 in [10]. Also, the pIC50 in data set [12] is 4.00. In data set [3] (setting [14]), the concentration at 0.5 h amounted to 3400 ng/mL. In addition, in [3] (setting [14]), the concentration at 1 h came to 1200 ng/mL. Besides, the concentration at 2 h in data set [3] (setting [14]) was determined as 500 ng/mL. Also, in data set [8], the ED50 is 78 mg/kg. Moreover, the “effect on production of 6-keto-PGFla (in words)” value in data set [11] (10^-6 M) was “hardly efficient”. In data set [13] (ADP), the “maximum activity (platelet anti-aggregant)” value was 41,1%. Besides, the “percent inhibition of the aggregation curve” value is 18,2% in [13] (1 h), 25,6% in data set [13] (2 h), 41,1% in data set [13] (4 h) and 21,5% in [13] (6 h).
